Reference: PMC4414684 (Chemico-biological interactions, 2014)

Molecular target: T1, IKKβ (Homo sapiens, UniProt O14920)
T1 sequence (O14920 1-756): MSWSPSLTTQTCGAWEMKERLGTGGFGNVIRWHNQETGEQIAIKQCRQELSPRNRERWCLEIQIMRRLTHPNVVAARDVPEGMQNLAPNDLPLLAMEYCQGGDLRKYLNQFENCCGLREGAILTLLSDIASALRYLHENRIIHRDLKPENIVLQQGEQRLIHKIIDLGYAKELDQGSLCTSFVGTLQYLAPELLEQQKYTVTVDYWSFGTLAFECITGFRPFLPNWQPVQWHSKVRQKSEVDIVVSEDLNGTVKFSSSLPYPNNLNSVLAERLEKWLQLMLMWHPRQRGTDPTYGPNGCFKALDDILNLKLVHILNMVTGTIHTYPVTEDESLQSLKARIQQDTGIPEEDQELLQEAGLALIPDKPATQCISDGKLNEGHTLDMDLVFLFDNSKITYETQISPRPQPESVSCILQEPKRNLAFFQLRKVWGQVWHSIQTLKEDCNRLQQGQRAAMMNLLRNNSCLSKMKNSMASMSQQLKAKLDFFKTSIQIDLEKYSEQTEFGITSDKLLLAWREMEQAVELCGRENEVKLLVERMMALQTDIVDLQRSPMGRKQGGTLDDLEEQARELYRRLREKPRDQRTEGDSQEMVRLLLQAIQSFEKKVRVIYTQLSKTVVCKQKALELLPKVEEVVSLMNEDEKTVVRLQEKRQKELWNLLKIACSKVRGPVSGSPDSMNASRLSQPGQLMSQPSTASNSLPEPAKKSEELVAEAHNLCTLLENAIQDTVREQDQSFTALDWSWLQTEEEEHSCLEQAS
Format: biochemical
Conditions: read-out: % inhibition at 100 μM

With `CCCCCC(=O)/C=C/C=C\C/C=C\C/C=C\CCCC(=O)O` [15-oxoETE] the inhibition at 100 µM was > 50%.
